{
  "source": "ChEMBL document CHEMBL5055685",
  "about": "“Discovery of the First Potent IDO1/IDO2 Dual Inhibitors: A Promising Strategy for Cancer Immunotherapy” (J Med Chem, 2021)",
  "key": {"[1]": {"target": "Serine/threonine-protein kinase 17A (Homo sapiens) (UniProt Q9UEE5)", "sequence (Q9UEE5 whole entry)": "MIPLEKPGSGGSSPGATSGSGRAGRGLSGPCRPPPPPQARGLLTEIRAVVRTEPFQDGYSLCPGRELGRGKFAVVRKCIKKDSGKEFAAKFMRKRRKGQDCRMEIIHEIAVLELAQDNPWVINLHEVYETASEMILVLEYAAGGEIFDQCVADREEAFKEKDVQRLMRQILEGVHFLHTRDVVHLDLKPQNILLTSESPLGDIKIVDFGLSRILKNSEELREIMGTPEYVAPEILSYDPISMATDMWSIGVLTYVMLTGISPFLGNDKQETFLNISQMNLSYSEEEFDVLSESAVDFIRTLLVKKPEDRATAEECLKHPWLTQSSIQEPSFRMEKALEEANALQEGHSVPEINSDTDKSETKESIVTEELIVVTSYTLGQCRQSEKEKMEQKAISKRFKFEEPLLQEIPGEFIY", "assay": "Inhibition of DRAK1 (unknown origin) at 1 uM"}, "[2]": {"target": "MAP/microtubule affinity-regulating kinase 4 (Homo sapiens) (UniProt Q96L34)", "sequence (Q96L34 whole entry)": "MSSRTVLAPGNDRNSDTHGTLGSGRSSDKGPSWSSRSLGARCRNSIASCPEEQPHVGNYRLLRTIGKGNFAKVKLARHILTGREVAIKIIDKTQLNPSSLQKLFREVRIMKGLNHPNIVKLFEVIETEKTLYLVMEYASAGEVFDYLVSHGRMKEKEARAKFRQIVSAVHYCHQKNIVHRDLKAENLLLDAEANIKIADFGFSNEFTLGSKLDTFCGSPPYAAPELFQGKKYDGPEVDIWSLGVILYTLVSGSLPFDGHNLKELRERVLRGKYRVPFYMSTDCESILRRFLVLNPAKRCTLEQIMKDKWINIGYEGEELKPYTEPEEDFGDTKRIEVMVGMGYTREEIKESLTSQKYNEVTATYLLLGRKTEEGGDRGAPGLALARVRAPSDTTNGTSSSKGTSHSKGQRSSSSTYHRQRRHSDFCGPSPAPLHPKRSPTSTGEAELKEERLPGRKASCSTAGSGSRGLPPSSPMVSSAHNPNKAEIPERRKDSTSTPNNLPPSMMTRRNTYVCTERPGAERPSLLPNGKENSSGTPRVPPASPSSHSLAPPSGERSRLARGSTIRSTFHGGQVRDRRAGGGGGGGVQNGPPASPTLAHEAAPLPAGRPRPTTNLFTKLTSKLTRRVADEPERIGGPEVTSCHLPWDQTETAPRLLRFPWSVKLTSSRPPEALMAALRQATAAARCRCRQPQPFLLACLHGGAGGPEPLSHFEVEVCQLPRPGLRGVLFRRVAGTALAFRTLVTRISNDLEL", "assay": "Inhibition of MARK4 (unknown origin) at 1 uM"}, "[3]": {"target": "Glycogen synthase kinase-3 beta (Homo sapiens) (UniProt P49841)", "assay": "Inhibition of GSK3B (unknown origin) at 1 uM"}, "[4]": {"target": "Insulin-like growth factor 1 receptor (Homo sapiens) (UniProt P08069)", "sequence (P08069 31-736 limits assumed)": "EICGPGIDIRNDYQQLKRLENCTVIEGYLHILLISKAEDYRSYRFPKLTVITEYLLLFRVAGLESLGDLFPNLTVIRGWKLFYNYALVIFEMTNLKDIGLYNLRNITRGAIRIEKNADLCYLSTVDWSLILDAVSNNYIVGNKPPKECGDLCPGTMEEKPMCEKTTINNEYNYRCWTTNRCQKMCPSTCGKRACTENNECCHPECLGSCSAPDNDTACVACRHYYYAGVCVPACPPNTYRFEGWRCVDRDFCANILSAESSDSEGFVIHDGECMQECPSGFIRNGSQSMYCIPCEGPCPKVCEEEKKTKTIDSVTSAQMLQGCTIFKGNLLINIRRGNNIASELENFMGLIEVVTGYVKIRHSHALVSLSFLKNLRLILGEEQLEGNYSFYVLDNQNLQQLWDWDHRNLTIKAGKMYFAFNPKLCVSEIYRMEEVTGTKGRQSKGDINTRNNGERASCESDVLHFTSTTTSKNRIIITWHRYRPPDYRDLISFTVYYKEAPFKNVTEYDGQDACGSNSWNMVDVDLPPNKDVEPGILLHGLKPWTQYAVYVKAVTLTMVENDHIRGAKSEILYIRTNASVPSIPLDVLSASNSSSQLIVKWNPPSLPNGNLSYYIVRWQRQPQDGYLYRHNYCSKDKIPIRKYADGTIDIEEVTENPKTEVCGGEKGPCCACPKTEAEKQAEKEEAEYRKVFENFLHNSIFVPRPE", "sequence (P08069 741-1367 limits assumed)": "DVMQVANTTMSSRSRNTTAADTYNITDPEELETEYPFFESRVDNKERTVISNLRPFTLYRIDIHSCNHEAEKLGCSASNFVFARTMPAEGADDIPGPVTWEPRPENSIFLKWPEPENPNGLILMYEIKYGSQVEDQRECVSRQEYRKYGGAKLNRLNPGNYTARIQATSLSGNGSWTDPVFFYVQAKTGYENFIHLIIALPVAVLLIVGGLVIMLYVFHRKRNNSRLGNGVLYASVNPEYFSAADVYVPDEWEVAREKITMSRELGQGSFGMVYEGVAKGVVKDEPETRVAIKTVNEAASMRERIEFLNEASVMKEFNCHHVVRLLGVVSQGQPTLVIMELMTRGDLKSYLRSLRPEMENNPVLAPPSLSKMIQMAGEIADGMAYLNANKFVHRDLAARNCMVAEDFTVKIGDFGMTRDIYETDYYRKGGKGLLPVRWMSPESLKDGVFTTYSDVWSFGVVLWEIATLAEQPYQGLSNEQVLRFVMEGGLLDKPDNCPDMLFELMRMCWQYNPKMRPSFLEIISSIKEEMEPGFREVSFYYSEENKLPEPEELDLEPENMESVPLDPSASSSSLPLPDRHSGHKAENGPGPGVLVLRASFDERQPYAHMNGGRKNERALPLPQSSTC", "assay": "Inhibition of IGF1R (unknown origin) at 1 uM"}, "[5]": {"target": "Serine/threonine-protein kinase WNK1 (Homo sapiens) (UniProt Q9H4A3)", "assay": "Inhibition of WNK1 (unknown origin) at 1 uM"}, "[6]": {"target": "Serine/threonine-protein kinase pim-2 (Homo sapiens) (UniProt Q9P1W9)", "assay": "Inhibition of PIM2 (unknown origin) at 1 uM"}, "[7]": {"target": "Ribosomal protein S6 kinase beta-1 (Homo sapiens) (UniProt P23443)", "assay": "Inhibition of p70S6K (unknown origin) at 1 uM"}, "[8]": {"target": "Tyrosine-protein kinase TXK (Homo sapiens) (UniProt P42681)", "assay": "Inhibition of TXK (unknown origin) at 1 uM"}, "[9]": {"target": "Serine/threonine-protein kinase Sgk3 (Homo sapiens) (UniProt Q96BR1)", "sequence (Q96BR1 whole entry)": "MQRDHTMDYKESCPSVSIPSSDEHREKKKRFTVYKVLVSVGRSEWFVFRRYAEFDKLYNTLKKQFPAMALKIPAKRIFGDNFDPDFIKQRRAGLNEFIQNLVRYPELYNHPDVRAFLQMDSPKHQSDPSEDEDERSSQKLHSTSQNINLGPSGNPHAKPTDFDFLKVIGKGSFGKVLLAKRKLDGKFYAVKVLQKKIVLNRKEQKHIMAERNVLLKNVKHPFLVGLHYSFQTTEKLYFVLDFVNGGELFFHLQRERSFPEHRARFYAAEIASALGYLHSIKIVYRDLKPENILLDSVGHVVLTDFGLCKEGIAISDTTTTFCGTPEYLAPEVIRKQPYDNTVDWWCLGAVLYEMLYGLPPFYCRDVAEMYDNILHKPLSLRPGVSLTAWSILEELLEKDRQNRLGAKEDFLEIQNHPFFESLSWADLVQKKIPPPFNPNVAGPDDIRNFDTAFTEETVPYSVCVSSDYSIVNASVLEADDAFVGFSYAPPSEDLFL", "assay": "Inhibition of SGK3 (unknown origin) at 1 uM"}, "[10]": {"target": "RAC-gamma serine/threonine-protein kinase (Homo sapiens) (UniProt Q9Y243)", "assay": "Inhibition of AKT3 (unknown origin) at 1 uM"}, "[11]": {"target": "Serine/threonine-protein kinase Sgk1 (Homo sapiens) (UniProt O00141)", "assay": "Inhibition of SGK1 (unknown origin) at 1 uM"}, "[12]": {"assay": "Apparent permeability across apical to basolateral side in human Caco-2 cells", "type": "ADME, cell-based"}, "[13]": {"target": "Ribosomal protein S6 kinase alpha-2 (Homo sapiens) (UniProt Q15349)", "assay": "Inhibition of RSK3 (unknown origin) at 1 uM"}, "[14]": {"assay": "AUC (0 to t) in Sprague-Dawley rat at 50 mg/kg, po", "type": "ADME, organism-based", "parameters": "dose 50 mg/kg, route po", "conditions": "in vivo"}, "[15]": {"target": "Tyrosine-protein kinase Fes/Fps (Homo sapiens) (UniProt P07332)", "assay": "Inhibition of FES (unknown origin) at 1 uM"}, "[16]": {"assay": "Protein binding in Sprague-Dawley rat plasma by equilibrium dialysis", "type": "ADME, cell-free", "conditions": "read-out: PPB (converted)"}, "Mus musculus": {"test_system": "Mus musculus", "assay": "In vivo inhibition of IDO2 in BALB/c mouse xenografted with human HCT-116 cells assessed as suppression of IDO2 expression in tumor by immunohistochemical assay", "type": "functional, organism-based"}, "[17]": {"target": "Serine/threonine-protein kinase MARK1 (Homo sapiens) (UniProt Q9P0L2)", "assay": "Inhibition of MARK1 (unknown origin) at 1 uM"}, "[18]": {"assay": "Protein binding in monkey plasma by equilibrium dialysis by equilibrium dialysis", "type": "ADME, cell-free, Macaca mulatta", "conditions": "rhesus monkey, read-out: PPB (converted)"}, "[19]": {"target": "Serine/threonine-protein kinase Nek5 (Homo sapiens) (UniProt Q6P3R8)", "sequence (Q6P3R8 whole entry)": "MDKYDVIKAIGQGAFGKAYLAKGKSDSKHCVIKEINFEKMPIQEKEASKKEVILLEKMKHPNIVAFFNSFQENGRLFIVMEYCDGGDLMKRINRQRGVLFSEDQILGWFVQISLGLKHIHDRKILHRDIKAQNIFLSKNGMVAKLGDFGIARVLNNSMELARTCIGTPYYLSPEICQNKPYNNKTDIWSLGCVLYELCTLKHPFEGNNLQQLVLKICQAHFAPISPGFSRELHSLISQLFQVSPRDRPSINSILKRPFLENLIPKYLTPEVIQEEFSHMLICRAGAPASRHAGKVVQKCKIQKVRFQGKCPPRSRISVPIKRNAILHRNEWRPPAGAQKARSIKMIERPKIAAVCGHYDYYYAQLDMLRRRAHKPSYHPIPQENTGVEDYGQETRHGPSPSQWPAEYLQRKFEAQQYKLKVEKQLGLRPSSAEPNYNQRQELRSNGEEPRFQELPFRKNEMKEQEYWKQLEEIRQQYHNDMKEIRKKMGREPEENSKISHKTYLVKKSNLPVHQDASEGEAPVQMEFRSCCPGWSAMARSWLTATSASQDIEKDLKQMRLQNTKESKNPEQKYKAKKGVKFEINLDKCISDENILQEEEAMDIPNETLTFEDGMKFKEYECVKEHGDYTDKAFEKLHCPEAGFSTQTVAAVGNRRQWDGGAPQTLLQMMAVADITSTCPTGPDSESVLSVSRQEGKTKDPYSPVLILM", "assay": "Inhibition of NEK5 (unknown origin) at 1 uM"}, "[20]": {"assay": "Cmax in Sprague-Dawley rat at 50 mg/kg, po", "type": "ADME, organism-based", "parameters": "dose 50 mg/kg, route po", "conditions": "in vivo"}, "[21]": {"target": "Serine/threonine-protein kinase WNK2 (Homo sapiens) (UniProt Q9Y3S1)", "assay": "Inhibition of WNK2 (unknown origin) at 1 uM"}, "[22]": {"target": "CDK17/Cyclin-Y (Homo sapiens) (UniProt Q00537+Q8ND76)", "assay": "Inhibition of CDK17/cyclin-Y (unknown origin) at 1 uM", "type": "protein-complex assay"}, "[23]": {"target": "Serine/threonine-protein kinase A-Raf (Homo sapiens) (UniProt P10398)", "assay": "Inhibition of ARAF (unknown origin) at 1 uM"}, "[24]": {"target": "Aurora kinase C (Homo sapiens) (UniProt Q9UQB9)", "assay": "Inhibition of Aurora C (unknown origin) at 1 uM"}, "HCT-116": {"test_system": "HCT-116", "assay": "Antitumor immunity in BALB/c mouse xenografted with human HCT-116 cells assessed as necrotic Treg cells in tumor-draining lymph nodes by propidium iodide staining based flow cytometry analysis (reference value: 3.91 %)", "type": "functional"}, "[25]": {"target": "Mitogen-activated protein kinase kinase kinase kinase 4 (Homo sapiens) (UniProt O95819)", "assay": "Inhibition of HGK (unknown origin) at 1 uM"}, "[26]": {"target": "Casein kinase II subunit alpha' (Homo sapiens) (UniProt P19784)", "assay": "Inhibition of CK2A2 (unknown origin) at 1 uM"}, "[27]": {"target": "Indoleamine 2,3-dioxygenase 1 (Homo sapiens, UniProt P14902)", "assay": "Inhibition of IDO1 (unknown origin) assessed as reduction in kynurenine formation using L-tryptophan as substrate by methylene blue reagent based assay"}, "[28]": {"target": "Serine/threonine-protein kinase D1 (Homo sapiens) (UniProt Q15139)", "assay": "Inhibition of PKCmu (unknown origin) at 1 uM"}, "[29]": {"target": "cGMP-dependent protein kinase 1 (Homo sapiens) (UniProt Q13976)", "assay": "Inhibition of PKG1alpha (unknown origin) at 1 uM"}, "[30]": {"target": "Mitogen-activated protein kinase kinase kinase 12 (Homo sapiens) (UniProt Q12852)", "sequence (Q12852 whole entry)": "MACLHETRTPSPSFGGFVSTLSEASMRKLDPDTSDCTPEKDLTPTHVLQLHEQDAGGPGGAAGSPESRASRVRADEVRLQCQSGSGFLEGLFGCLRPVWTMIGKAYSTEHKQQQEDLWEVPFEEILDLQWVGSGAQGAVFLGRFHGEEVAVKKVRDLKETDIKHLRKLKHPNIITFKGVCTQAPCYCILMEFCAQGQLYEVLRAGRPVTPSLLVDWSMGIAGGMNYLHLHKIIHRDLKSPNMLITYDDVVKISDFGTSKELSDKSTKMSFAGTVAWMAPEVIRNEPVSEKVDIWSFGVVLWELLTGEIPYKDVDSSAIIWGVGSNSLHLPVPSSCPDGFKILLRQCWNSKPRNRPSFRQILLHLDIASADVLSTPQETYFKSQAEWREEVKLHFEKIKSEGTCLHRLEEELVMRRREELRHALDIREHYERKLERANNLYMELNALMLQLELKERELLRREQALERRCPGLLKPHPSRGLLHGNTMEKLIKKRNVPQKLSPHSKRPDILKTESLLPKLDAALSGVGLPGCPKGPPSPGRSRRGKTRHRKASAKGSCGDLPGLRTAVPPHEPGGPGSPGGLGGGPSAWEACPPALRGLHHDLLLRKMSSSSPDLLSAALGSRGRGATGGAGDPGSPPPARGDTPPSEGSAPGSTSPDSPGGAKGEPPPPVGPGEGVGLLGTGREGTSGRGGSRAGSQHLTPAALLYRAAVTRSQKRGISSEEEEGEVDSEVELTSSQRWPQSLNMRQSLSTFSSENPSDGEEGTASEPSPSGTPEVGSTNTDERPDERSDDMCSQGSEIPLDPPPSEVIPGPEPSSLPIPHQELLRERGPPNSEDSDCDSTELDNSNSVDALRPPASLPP", "assay": "Inhibition of DLK (unknown origin) at 1 uM"}, "[31]": {"target": "Serine/threonine-protein kinase ULK3 (Homo sapiens) (UniProt Q6PHR2)", "sequence (Q6PHR2 whole entry)": "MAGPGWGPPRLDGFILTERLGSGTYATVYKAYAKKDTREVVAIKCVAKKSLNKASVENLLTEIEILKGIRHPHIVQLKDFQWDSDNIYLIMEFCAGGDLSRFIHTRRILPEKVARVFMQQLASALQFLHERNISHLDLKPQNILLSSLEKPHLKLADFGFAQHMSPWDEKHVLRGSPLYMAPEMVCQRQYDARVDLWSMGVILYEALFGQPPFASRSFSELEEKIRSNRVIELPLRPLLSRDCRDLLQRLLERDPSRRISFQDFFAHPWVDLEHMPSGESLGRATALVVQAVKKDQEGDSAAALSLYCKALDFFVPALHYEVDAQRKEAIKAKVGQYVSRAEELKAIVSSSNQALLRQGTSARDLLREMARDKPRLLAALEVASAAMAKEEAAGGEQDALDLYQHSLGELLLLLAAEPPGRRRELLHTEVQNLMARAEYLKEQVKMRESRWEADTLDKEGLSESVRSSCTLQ", "assay": "Inhibition of ULK3 (unknown origin) at 1 uM"}, "[32]": {"target": "G protein-coupled receptor kinase 5 (Homo sapiens) (UniProt P34947)", "assay": "Inhibition of GRK5 (unknown origin) at 1 uM"}, "[33]": {"target": "Serine/threonine-protein kinase MRCK beta (Homo sapiens) (UniProt Q9Y5S2)", "assay": "Inhibition of MRCKbeta (unknown origin) at 1 uM"}, "[34]": {"target": "RAC-beta serine/threonine-protein kinase (Homo sapiens) (UniProt P31751)", "assay": "Inhibition of AKT2 (unknown origin) at 1 uM"}, "[35]": {"target": "Tyrosine-protein kinase HCK (Homo sapiens) (UniProt P08631)", "assay": "Inhibition of HCK (unknown origin) at 1 uM"}, "[36]": {"target": "MAP kinase-activated protein kinase 3 (Homo sapiens) (UniProt Q16644)", "assay": "Inhibition of MAPKAPK3 (unknown origin) at 1 uM"}, "[37]": {"target": "CDK6/cyclin D3 (Homo sapiens) (UniProt P30281+Q00534)", "assay": "Inhibition of CDK6/cyclin-D3 (unknown origin) at 1 uM", "type": "protein-complex assay"}, "[38]": {"target": "Serine/threonine-protein kinase 32B (Homo sapiens) (UniProt Q9NY57)", "assay": "Inhibition of STK32B (unknown origin) at 1 uM"}, "[39]": {"target": "SNF-related serine/threonine-protein kinase (Homo sapiens) (UniProt Q9NRH2)", "assay": "Inhibition of SNRK (unknown origin) at 1 uM"}, "[40]": {"target": "Mitogen-activated protein kinase kinase kinase kinase 3 (Homo sapiens) (UniProt Q8IVH8)", "assay": "Inhibition of GLK (unknown origin) at 1 uM"}, "[41]": {"target": "SRSF protein kinase 1 (Homo sapiens) (UniProt Q96SB4)", "assay": "Inhibition of SRPK1 (unknown origin) at 1 uM"}, "[42]": {"target": "Protein kinase C eta type (Homo sapiens) (UniProt P24723)", "assay": "Inhibition of PKCeta (unknown origin)at 1 uM"}},
  "note": "Active and inactive are the calls of the source. No cut-off for these calls is given here.",
  "data": [
    {"smiles": "OCCOCc1cn(CCNc2nonc2/C(=N/O)Nc2ccc(F)c(Br)c2)nn1", "values": [
      {"measurement": "inhibition", "setting": "[1]", "result": "inactive"},
      {"measurement": "inhibition", "setting": "[2]", "result": "inactive"},
      {"measurement": "inhibition", "setting": "[3]", "result": "inactive"},
      {"measurement": "inhibition", "setting": "[4]", "result": "inactive"},
      {"measurement": "inhibition", "setting": "[5]", "result": "inactive"},
      {"measurement": "inhibition", "setting": "[6]", "result": "inactive"},
      {"measurement": "inhibition", "setting": "[7]", "result": "inactive"},
      {"measurement": "inhibition", "setting": "[8]", "result": "inactive"},
      {"measurement": "inhibition", "setting": "[9]", "result": "inactive"},
      {"measurement": "inhibition", "setting": "[10]", "result": "inactive"},
      {"measurement": "inhibition", "setting": "[11]", "result": "inactive"},
      {"measurement": "Papp A→B", "setting": "[12]", "result": 7.2, "unit": "×10⁻⁶ cm/s"},
      {"measurement": "inhibition", "setting": "[13]", "result": "inactive"},
      {"measurement": "AUC(0-t)", "setting": "[14]", "result": 3640, "unit": "ng·h/mL"},
      {"measurement": "inhibition", "setting": "[15]", "result": "inactive"},
      {"measurement": "fraction unbound", "setting": "[16]", "result": 0.0672},
      {"measurement": "inhibition", "setting": "Mus musculus", "result": "Active"},
      {"measurement": "inhibition", "setting": "[17]", "result": "inactive"},
      {"measurement": "fraction unbound", "setting": "[18]", "result": 0.0763},
      {"measurement": "inhibition", "setting": "[19]", "result": "inactive"},
      {"measurement": "Cmax", "setting": "[20]", "result": 1040, "unit": "ng/mL"},
      {"measurement": "inhibition", "setting": "[21]", "result": "inactive"},
      {"measurement": "inhibition", "setting": "[22]", "result": "inactive"},
      {"measurement": "inhibition", "setting": "[23]", "result": "inactive"},
      {"measurement": "inhibition", "setting": "[24]", "result": "inactive"},
      {"measurement": "Activity", "setting": "HCT-116", "result": 0.73, "unit": "%"},
      {"measurement": "inhibition", "setting": "[25]", "result": "inactive"},
      {"measurement": "inhibition", "setting": "[26]", "result": "inactive"},
      {"measurement": "IC50", "setting": "[27]", "result": 28, "unit": "nM"},
      {"measurement": "inhibition", "setting": "[28]", "result": "inactive"},
      {"measurement": "inhibition", "setting": "[29]", "result": "inactive"},
      {"measurement": "inhibition", "setting": "[30]", "result": "inactive"},
      {"measurement": "inhibition", "setting": "[31]", "result": "inactive"},
      {"measurement": "inhibition", "setting": "[32]", "result": "inactive"},
      {"measurement": "inhibition", "setting": "[33]", "result": "inactive"},
      {"measurement": "inhibition", "setting": "[34]", "result": "inactive"},
      {"measurement": "inhibition", "setting": "[35]", "result": "inactive"},
      {"measurement": "inhibition", "setting": "[36]", "result": "inactive"},
      {"measurement": "inhibition", "setting": "[37]", "result": "inactive"},
      {"measurement": "inhibition", "setting": "[38]", "result": "inactive"},
      {"measurement": "inhibition", "setting": "[39]", "result": "inactive"},
      {"measurement": "inhibition", "setting": "[40]", "result": "inactive"},
      {"measurement": "inhibition", "setting": "[41]", "result": "inactive"},
      {"measurement": "inhibition", "setting": "[42]", "result": "inactive"}
    ]}
  ]
}
